Common to all, as to assay type: cell-based, mouse
Experiment [1] relates to α7 integrin (LacZ reporter in α7+/LacZ myotubes). Put plainly: Myotube α7 integrin FDG assay (Burkin assay in myotubes, 96-well). The following applies: myotubes.
In experiment [2] the test system is α7 integrin (LacZ reporter in α7βgal+/− myoblasts). Nature of the experiment: Myoblast α7+/LacZ integrin FDG assay (Burkin assay in myoblasts, 96-well). The note with it: α7+/LacZ myoblasts, 96-well.
Experiment [3] concerns β-galactosidase in CMV-LacZ C2C12 myotubes. Put plainly: CMV-LacZ secondary screen in C2C12 myotubes (β-Gal stabilizing assay). The note with it: for CMV-LACZ in Myotubes, signal relative to DMSO: C2C12 CMV-LacZ myotubes, fold relative to DMSO; for CMV-LACZ in Myotubes (β-galactosidase activity relative to DMSO): CMV-LacZ C2C12 myotubes, 96-well format. An excerpt: In order to determine compounds that acted to stabilize β-gal in myogenic cells, a CMV-LacZ C2C12 cell line was used in a secondary screen. The EGFP gene from the pEGFP (Clontech) vector was replaced by LACZ PCR product with digests of the vector/PCR product performed using EcoRI (NEB) and NotI (NEB) and ligated using T4 DNA Ligase (NEB) following standard procedures to produce the CMV-LACZ vector. The LACZ gene was generated by PCR from the pBK-RSV (Stratagene) vector using primers LACZ EcoRI F- and LACZ NotI R-. The CMV-LACZ vector was then digested with AfIII (NEB) to linearize the construct, which was then transfected in C2C12 myoblasts using Lipofectamine 2000 (Invitrogen) following the manufacturer's instructions. […] Clonal lines were selected and screened for βgal levels using the myoblast FDG assay.
The assays were used the original 96-well format and new dose-response curves for myoblasts (N=3-6 replicates for each data point), myotubes (N=3-6 replicates for data point), and CMV-LacZ secondary assay (N=2 replicates for each data point) using concentrations of 0.5 μM, 1 μM, 5 μM, 10 μM, 20 μM, and 40 μM (Tables 9-16).

For `CNC(=S)N1CCC(NC(=O)C(Cc2ccc(F)cc2)NC(C)=O)CC1` (stereo not drawn) [MLS000710130-01], the “Burkin Assay in Myotubes (signal relative to DMSO)” value came out at 0.9811 in experiment [1] (0.5 uM); 0.8524 in experiment [1] (1 uM); 0.6183 in experiment [1] (5 uM); 0.6452 in experiment [1] (10 uM); 1.044 in experiment [1] (20 uM); 1.064 in experiment [1] (40 uM). In addition, the “Burkin Assay in Myoblasts, value relative to DMSO” value was determined as 0.9666 in experiment [2] (0.5 uM); 1.103 in experiment [2] (1 uM); 1.006 in experiment [2] (5 uM); 1.036 in experiment [2] (10 uM); 0.8326 in experiment [2] (20 uM); 0.8689 in experiment [2] (40 uM). In addition, the “CMV-LACZ in Myotubes, signal relative to DMSO” value in experiment [3] (5 uM) is given as 0.8144; in experiment [3] (10 uM), 0.8646; in experiment [3] (20 uM), 0.9864; in experiment [3] (40 uM) it was 0.9336.
`NS(=O)(=O)c1ccc(NC(=O)c2ccc(CNS(=O)(=O)c3cc(C(F)(F)F)ccc3Cl)cc2)cc1` [MLS000393110-01]: the “Burkin Assay in Myotubes, α7 integrin LacZ reporter signal relative to DMSO” value is given as 1.139 in experiment [1] (0.5 uM); 0.9276 in experiment [1] (1 uM); 1.022 in experiment [1] (5 uM); 0.9816 in experiment [1] (10 uM); 0.6726 in experiment [1] (20 uM); 0.8173 in experiment [1] (40 uM). Besides, the “Burkin Assay in Myoblasts, signal relative to DMSO” value in experiment [2] (0.5 uM) is on record as 0.9045; in experiment [2] (1 uM), 0.9273; in experiment [2] (5 uM) it was 1.074; in experiment [2] (10 uM), 1.088; in experiment [2] (20 uM), 1.012; in experiment [2] (40 uM), 0.71. Moreover, the “CMV-LACZ in Myotubes, signal relative to DMSO” value in experiment [3] (5 uM) stood at 1.103; in experiment [3] (10 uM) it was 0.9673; in experiment [3] (20 uM), 1.0745; in experiment [3] (40 uM) it was 0.8895.
For `CC(=O)Nc1ccc(N(C(=O)c2cnccn2)C(C(=O)NC2CCCCC2)c2ccc(F)cc2)cc1` (stereo not drawn) [MLS001225507-01], the “Burkin Assay in Myotubes, α7 integrin LacZ reporter signal relative to DMSO” value came out at 0.9321 in experiment [1] (0.5 uM); 0.6741 in experiment [1] (1 uM); 1.013 in experiment [1] (5 uM); 1.002 in experiment [1] (10 uM); 1.175 in experiment [1] (20 uM); 0.9539 in experiment [1] (40 uM). Besides, the “Burkin Assay in Myoblasts, signal relative to DMSO” value in experiment [2] (0.5 uM) was 1.0374; in experiment [2] (1 uM), 0.9444; in experiment [2] (5 uM), 0.9036; in experiment [2] (10 uM), 0.8292; in experiment [2] (20 uM), 0.8685; in experiment [2] (40 uM), 0.888. For the same compound, the “CMV-LACZ in Myotubes, signal relative to DMSO” value in experiment [3] (5 uM) is given as 1.04; in experiment [3] (10 uM), 0.994; in experiment [3] (20 uM), 0.8655; in experiment [3] (40 uM) it was 0.8805.
As for `COc1ccc(N2CCCC2)c(NC(=O)c2ccc([N+](=O)[O-])o2)c1` [MLS001221619-01], the “Burkin Assay in Myotubes (signal relative to DMSO)” value in experiment [1] (0.5 uM) is on record as 0.826; in experiment [1] (1 uM) it was 0.9557; in experiment [1] (5 uM), 0.944; in experiment [1] (10 uM), 1.012; in experiment [1] (20 uM), 0.8603; in experiment [1] (40 uM) it was 1.034. In addition, the “Burkin Assay in Myoblasts, value relative to DMSO” value was 0.6855 in experiment [2] (0.5 uM); 0.7633 in experiment [2] (1 uM); 0.7367 in experiment [2] (5 uM); 0.6764 in experiment [2] (10 uM); 0.9648 in experiment [2] (20 uM); 0.8976 in experiment [2] (40 uM). Further, the “CMV-LACZ in Myotubes (β-galactosidase activity relative to DMSO)” value in experiment [3] (5 uM) is on record as 1.172; in experiment [3] (10 uM), 1.321; in experiment [3] (20 uM) it was 1.513; in experiment [3] (40 uM), 1.781.
In the case of `CCCNC(=S)N1CCC(NC(=O)c2ccc(OC)cc2)CC1` [MLS001211651-01], the “Burkin Assay in Myotubes, α7 integrin LacZ reporter signal relative to DMSO” value in experiment [1] (0.5 uM) was 0.8543; in experiment [1] (1 uM), 0.913; in experiment [1] (5 uM), 1.116; in experiment [1] (10 uM), 1.025; in experiment [1] (20 uM) it was 1.076; in experiment [1] (40 uM), 1.027. Moreover, the “Burkin Assay in Myoblasts, signal relative to DMSO” value is recorded as 1.061 in experiment [2] (0.5 uM); 1.124 in experiment [2] (1 uM); 1.011 in experiment [2] (5 uM); 0.972 in experiment [2] (10 uM); 0.9909 in experiment [2] (20 uM); 1.026 in experiment [2] (40 uM). The “CMV-LACZ in Myotubes, signal relative to DMSO” value in experiment [3] (5 uM) turned out to be 0.8714; in experiment [3] (10 uM), 0.8433; in experiment [3] (20 uM) it was 0.8465; in experiment [3] (40 uM), 0.977.
On to `CC(C)N(CCO)C(=O)CCc1nnc(CCCc2ccccc2)o1` [MLS000733703-01], for which the “Burkin Assay in Myotubes (signal relative to DMSO)” value in experiment [1] (0.5 uM) was found to be 1.063; in experiment [1] (1 uM), 1.128; in experiment [1] (5 uM), 0.8779; in experiment [1] (10 uM), 1.147; in experiment [1] (20 uM) it was 0.9957; in experiment [1] (40 uM), 0.894. Also, the “Burkin Assay in Myoblasts, value relative to DMSO” value in experiment [2] (0.5 uM) is listed as 0.988; in experiment [2] (1 uM), 0.9592; in experiment [2] (5 uM), 0.8919; in experiment [2] (10 uM), 0.8734; in experiment [2] (20 uM) it was 0.8635; in experiment [2] (40 uM), 0.8463. In addition, the “CMV-LACZ in Myotubes, signal relative to DMSO” value in experiment [3] (5 uM) was determined as 1.1188; in experiment [3] (10 uM), 0.8654; in experiment [3] (20 uM), 0.9583; in experiment [3] (40 uM), 0.7965.

The record behind these values is US9980943B2, “Methods of treating muscular dystrophy” (BOARD OF REGENTS OF THE NEVADA SYSTEM OF HIGHER EDUCATION, …, priority 2013, dated 2018).
